Source: patent publication US20200246317A1, “METHODS OF TREATING DIABETIC NEUROPATHY WITH A THIAZOLINE ANTI-HYPERALGESIC AGENT” (CERSCI THERAPEUTICS, INC., priority 2019, published 2020)
Counter-ions that a name gives are not always drawn.

Key:
[1] = system: uninjured animals; assay: Normal sensation in uninjured animals; assay type: in vivo; settings: given to uninjured animals
[2] = target: T1, BCRP (ABCG2) (Homo sapiens, UniProt Q9UNQ0); assay: Inhibition of transporters, BCRP (MDCKII cells, prazosin); assay type: in vitro ADME
T1 construct: expressed in transfected cells; host or cells: MDCKII-BCRP cells (with MDCKII control cells)
T1 sequence (Q9UNQ0 1-655): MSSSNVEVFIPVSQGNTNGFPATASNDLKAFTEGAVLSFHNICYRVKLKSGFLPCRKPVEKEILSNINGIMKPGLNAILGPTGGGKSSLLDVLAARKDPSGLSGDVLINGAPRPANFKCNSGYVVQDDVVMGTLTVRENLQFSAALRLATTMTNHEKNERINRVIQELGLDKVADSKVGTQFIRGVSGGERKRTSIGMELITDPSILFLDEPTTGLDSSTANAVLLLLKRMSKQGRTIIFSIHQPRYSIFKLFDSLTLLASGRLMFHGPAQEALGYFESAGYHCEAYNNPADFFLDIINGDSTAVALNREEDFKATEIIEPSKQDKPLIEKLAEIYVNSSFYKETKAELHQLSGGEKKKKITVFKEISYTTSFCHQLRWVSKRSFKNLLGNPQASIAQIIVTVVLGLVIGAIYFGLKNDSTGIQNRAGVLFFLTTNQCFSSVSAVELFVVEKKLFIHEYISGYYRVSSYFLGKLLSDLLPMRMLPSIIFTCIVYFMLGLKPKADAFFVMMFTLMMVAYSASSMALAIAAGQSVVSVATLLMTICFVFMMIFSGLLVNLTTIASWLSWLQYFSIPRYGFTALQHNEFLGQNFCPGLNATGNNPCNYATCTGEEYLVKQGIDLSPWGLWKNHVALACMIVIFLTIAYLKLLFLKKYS

[3] = Stability of dose formulations for GLP toxicology studies (0.5% HPMC); assay type: physicochemical; settings: 1.0 to 200 mg/mL in 0.5% HPMC
Experimental: Formulation analysis and bioanalytical methods were validated for all GLP studies. Formulation of Compound 1 in water was validated over a range of 1 to 200 mg/mL using HPLC and in 0.5% hydroxypropyl methylcellulose (HPMC) over the same range.
Dose formulation analysis for all good laboratory practice (GLP) general toxicology studies was performed using a validated high-performance liquid chromatography (HPLC)/ultraviolet (UV) analytical method (2750-001-001 Dose Formulation Method 1). The vehicle used in the in vivo toxicology studies was 0.5% HPMC). The analytical method utilized HPLC with monitoring at 227 nm with an isocratic mobile phase of methanol with the column temperature set to 25° C. Linearity over a range of 1.0 to 200 mg/mL was observed. Dose formulations over this range were stable at room temperature for up to 13 days and were stable when stored frozen at −20° C. for up to 85 days.

[4] = In vivo epimerization by chiral methods
[5] = target: T2, OAT1 (Homo sapiens, UniProt Q4U2R8); assay: Inhibition of transporters, OAT1 (HEK293 cells); assay type: in vitro ADME
T2 construct: expressed in transfected cells; host or cells: HEK293 cells
T2 sequence (Q4U2R8 1-563): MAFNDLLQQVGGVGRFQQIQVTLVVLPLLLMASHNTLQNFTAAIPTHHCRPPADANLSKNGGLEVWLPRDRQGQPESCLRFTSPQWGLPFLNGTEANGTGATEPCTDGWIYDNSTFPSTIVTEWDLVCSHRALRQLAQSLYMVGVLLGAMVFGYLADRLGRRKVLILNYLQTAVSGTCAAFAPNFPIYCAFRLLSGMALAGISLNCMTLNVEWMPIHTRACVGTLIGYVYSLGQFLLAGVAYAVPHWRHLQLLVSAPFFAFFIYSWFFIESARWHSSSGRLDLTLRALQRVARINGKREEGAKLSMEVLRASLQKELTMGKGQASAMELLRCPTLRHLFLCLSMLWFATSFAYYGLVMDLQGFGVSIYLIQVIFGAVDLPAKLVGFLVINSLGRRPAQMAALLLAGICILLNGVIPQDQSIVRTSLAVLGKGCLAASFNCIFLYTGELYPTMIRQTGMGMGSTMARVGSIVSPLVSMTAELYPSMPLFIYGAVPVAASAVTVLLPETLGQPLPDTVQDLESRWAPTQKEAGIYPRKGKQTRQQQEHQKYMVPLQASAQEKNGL

[6] = Models of protein nitration; assay type: biochemical; settings: physiological conditions (neutral pH)
[7] = system: STZ-induced mechanical allodynia; assay: Diabetic neuropathy model of FIG. 10 (STZ, mechanical hypersensitivity); assay type: in vivo, mice; settings: STZ on day −7
Experimental: Streptozotocin (STZ) destroys insulin-producing cells and generates a diabetic phenotype in mice. Animals were dosed with STZ on day −7. By day 0, animals are hyperglycemic and hyperalgesic (day 0 BL).

[8] = target: T3, OATP1B1 (Homo sapiens, UniProt Q9Y6L6); assay: Inhibition of transporters, OATP1B1 (HEK293 cells); assay type: in vitro ADME
T3 construct: expressed in transfected cells; host or cells: HEK293 cells
T3 sequence (Q9Y6L6 1-691): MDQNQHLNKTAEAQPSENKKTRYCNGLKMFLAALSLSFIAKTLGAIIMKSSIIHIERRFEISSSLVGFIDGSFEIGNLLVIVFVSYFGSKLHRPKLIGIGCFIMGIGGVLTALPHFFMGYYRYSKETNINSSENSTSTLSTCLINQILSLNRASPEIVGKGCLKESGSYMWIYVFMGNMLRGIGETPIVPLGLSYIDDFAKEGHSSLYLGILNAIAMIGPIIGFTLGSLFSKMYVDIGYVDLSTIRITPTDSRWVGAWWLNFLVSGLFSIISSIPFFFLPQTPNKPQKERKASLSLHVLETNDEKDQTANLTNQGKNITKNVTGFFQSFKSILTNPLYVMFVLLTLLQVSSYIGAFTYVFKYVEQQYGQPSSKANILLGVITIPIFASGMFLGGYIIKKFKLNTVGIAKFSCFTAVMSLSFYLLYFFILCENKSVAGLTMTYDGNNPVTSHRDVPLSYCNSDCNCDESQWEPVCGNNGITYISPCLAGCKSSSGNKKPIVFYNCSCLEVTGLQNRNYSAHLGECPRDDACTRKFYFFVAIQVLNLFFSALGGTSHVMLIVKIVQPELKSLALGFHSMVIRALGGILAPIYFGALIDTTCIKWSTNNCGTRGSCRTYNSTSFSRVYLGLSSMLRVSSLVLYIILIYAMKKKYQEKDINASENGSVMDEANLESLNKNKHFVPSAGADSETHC

[9] = Chemical-based assays of peroxynitrite (PN) oxidation (luminol); assay type: biochemical
[10] = Stability in hepatocytes, dog; assay type: in vitro ADME

CC1(C)SC(Nc2ccccc2O)=N[C@@H]1C(=O)O [Compound 1, (R)-2-(2-hydroxyphenylamino)-5,5-dimethyl-4,5-dihydrothiazole-4-carboxylic acid mono-hydrochloride]
effect on normal sensation [1]: does not alter normal sensation | inhibition of BCRP (in words) [2]: modestly inhibits | stability of dose formulations, time stable ([3]; room temperature): up to 13 days | stability of dose formulations, time stable ([3]; stored frozen at −20° C.): up to 85 days | epimerization in vivo [4]: no epimerization | inhibition of OAT1 (in words) [5]: does not inhibit | removal of peroxynitrite [6]: catalytically remove peroxynitrite | effect on STZ-induced mechanical allodynia [7]: blocks STZ-induced mechanical allodynia | inhibition of OATP1B1 (in words) [8]: does not inhibit | PN-mediated oxidation of small-molecule organic substrates such as luminol [9]: inhibits PN-mediated oxidation | stability in hepatocytes [10]: stable
